# Measured values from ChEMBL document CHEMBL5352382, “Synthesis and evaluation of imidazo[1,2-a]pyrazine derivatives as small molecule Gαq/11 inhibitors against uveal melanoma” (Eur J Med Chem, 2022).
# Active and inactive are the calls of the source. The calls are words filed in the database; no cut-off is given here.
# Assays:
# [1] = Aqueous solubility of the compound in deionized water at 25 degreeC by HPLC analysis; type: physicochemical
# [2] = Chemical stability of the compound assessed as compound remaining measured after 7 days by LC-MS analysis; type: physicochemical; details: time 7 day; read-out: Stability
# [3] = Metabolic stability in human liver microsomes assessed as intrinsic clearance preincubated for 15 mins followed by NADPH addition and measured upto 45 mins by LC-MS/MS analysis; type: ADME, Microsome; details: time < 60 min, read-out: CLH
# [4] = Metabolic stability in human liver microsomes assessed as half life preincubated for 15 mins followed by NADPH addition and measured upto 45 mins by LC-MS/MS analysis; type: ADME, Microsome; details: time < 60 min
# [5] = Antiproliferative activity against human MP41 cells assessed as reduction in cell viability measured after 72 hrs by CCK-8 method; type: functional, cell-based; details: MP41, 72 h
# [6] = Antiproliferative activity against human 921 cells assessed as reduction in cell viability measured after 72 hrs by CCK-8 method; type: functional, cell-based; details: Homo sapiens, 921, 72 h
# HEK-293T = experiment: Cytotoxicity against HEK293T cells assessed as reduction in cell viability at 10 uM measured after 72 hrs by CCK-8 method; type: toxicity, cell-based; details: human
# BEAS-2B = experiment: Cytotoxicity against human BEAS-2B cells assessed as reduction in cell viability at 10 uM measured after 72 hrs by CCK-8 method; type: toxicity, cell-based
# [7] = molecular target: T1, Type-1 angiotensin II receptor (Homo sapiens, UniProt P30556); experiment: (§1) Inhibition of human AT1R expressed in HEK293 cells using […] incubated for 1 hr followed by addition of angiotensinII and substrate by BRET assay; type: cell-based
# T1 sequence (P30556 whole entry): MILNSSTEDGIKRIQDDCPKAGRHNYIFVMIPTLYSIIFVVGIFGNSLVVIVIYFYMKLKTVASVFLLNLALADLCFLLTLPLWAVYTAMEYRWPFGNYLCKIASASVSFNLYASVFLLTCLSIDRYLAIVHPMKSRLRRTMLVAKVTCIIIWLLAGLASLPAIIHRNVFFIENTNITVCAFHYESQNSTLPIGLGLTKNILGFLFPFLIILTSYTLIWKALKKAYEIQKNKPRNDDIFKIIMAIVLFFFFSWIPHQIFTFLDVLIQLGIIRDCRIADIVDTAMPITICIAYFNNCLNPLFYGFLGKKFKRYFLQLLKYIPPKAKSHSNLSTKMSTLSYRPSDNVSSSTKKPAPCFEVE
# [8] = Inhibition of Galphaq (unknown origin) preincubated for 1 hr followed by carbachol stimulation for 30 mins and measured after 1 hr by IP1 accumulation based HTRF assay; set-up: species or system Homo sapiens
# [9] = molecular target: T2, GNAQ/GNA11 (Homo sapiens) (UniProt P50148+P29992); experiment: Inhibition of Galphaq/11 (unknown origin) expressed in CHO-M1 cells at 10 uM preincubated for 1 hr followed by carbachol stimulation for 30 mins and measured after 1 hr by IP1 accumulation based HTRF assay relative to control; type: cell-based; details: time 150.0 min
# A-375 = experiment: Antiproliferative activity against human A-375 cells assessed as reduction in cell viability at 10 uM measured after 72 hrs by CCK-8 method; type: functional, cell-based
# SK-MEL-2 = experiment: Antiproliferative activity against human SK-MEL-2 cells assessed as reduction in cell viability at 10 uM measured after 72 hrs by CCK-8 method; type: functional, cell-based
# MP41 [10] = experiment: Antiproliferative activity against human MP41 cells assessed as reduction in cell viability at 1.25 uM measured after 72 hrs by CCK-8 method; type: functional, cell-based
# 921 = experiment: Antiproliferative activity against human 921 cells assessed as reduction in cell viability at 1.25 uM measured after 72 hrs by CCK-8 method; type: functional, cell-based
# MP41 [11] = experiment: Inhibition of colony formation in human MP41 cells assessed as inhibition of cell proliferation incubated for 14 days with replacement with fresh medium for every 3 days by crystal violet staining based analysis; type: functional; details: dose 1-5 µM, time 14.0 day
# MP41 [12] = experiment: Inhibition of cell invasion in human MP41 cells measured after 48 hrs by crystal violet staining based Boyden chamber invasion assay; type: functional; details: dose 3-10 µM
# MP41 [13] = experiment: Inhibition of cell migration in human MP41 cells incubated for 24 hrs by wound healing assay; type: functional, cell-based; details: dose 3-10 µM
# [14] = molecular target: T3, Mitogen-activated protein kinase; ERK1/ERK2 (Homo sapiens) (UniProt P27361+P28482); experiment: Inhibition of ERK1/2 phosphorylation in human MP41 cells at 20 uM by Western blot analysis; type: cell-based; details: time <= 24.0 hrs, TDE = time-dependent effect
# T3 sequence (P27361 whole entry, looked up): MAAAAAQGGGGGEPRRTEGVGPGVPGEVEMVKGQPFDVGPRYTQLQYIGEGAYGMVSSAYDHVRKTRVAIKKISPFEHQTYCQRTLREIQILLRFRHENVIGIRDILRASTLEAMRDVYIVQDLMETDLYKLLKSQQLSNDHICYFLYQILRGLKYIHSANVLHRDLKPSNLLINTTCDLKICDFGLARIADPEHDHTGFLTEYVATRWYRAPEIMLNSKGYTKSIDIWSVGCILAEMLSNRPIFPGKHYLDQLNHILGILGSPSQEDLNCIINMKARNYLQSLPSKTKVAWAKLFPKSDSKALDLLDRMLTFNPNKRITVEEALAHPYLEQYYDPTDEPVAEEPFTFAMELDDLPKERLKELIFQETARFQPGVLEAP
# T3 sequence (P28482 whole entry, looked up): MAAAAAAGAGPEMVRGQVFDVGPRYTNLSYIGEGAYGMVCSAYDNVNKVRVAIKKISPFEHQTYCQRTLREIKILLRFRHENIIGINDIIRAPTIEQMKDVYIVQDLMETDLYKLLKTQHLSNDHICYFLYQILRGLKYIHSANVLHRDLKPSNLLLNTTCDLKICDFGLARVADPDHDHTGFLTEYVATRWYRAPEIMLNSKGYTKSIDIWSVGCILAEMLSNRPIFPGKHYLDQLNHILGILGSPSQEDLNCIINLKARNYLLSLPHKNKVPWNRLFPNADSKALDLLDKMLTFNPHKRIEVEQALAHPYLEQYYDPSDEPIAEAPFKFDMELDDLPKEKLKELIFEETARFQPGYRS
# [15] = molecular target: Transcriptional coactivator YAP1 (Homo sapiens) (UniProt P46937); experiment: Activation of YAP phosphorylation in human MP41 cells at 20 uM by Western blot analysis; type: cell-based; details: filed as activator, time <= 24.0 hrs, TDE = time-dependent effect
# Chain of Transcriptional coactivator YAP1 (Homo sapiens) (P46937 whole entry): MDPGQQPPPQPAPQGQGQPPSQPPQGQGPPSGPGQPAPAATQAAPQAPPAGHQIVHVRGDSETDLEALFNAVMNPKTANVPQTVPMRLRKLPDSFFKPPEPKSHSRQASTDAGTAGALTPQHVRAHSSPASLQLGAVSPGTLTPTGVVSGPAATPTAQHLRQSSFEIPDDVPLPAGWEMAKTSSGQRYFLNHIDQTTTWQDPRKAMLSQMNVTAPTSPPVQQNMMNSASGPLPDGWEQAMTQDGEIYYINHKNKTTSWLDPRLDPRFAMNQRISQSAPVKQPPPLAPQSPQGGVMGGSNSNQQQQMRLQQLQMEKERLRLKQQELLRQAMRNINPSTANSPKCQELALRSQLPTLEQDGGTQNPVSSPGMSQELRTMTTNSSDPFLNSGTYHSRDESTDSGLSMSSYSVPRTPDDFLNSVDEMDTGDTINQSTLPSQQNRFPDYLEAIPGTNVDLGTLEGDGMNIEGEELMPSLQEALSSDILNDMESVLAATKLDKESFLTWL
# [16] = molecular target: T3, Mitogen-activated protein kinase; ERK1/ERK2 (Homo sapiens); experiment: Inhibition of ERK1/2 phosphorylation in human MP41 cells incubated for 4 hrs by Western blot analysis; type: cell-based; details: dose 3-20 µM
# [17] = molecular target: T3, Mitogen-activated protein kinase; ERK1/ERK2 (Homo sapiens); experiment: Inhibition of ERK1/2 phosphorylation in human MP41 cells incubated for 24 hrs by Western blot analysis; type: cell-based; details: dose 3-20 µM
# [18] = molecular target: Transcriptional coactivator YAP1 (Homo sapiens) (UniProt P46937); experiment: Activation of YAP phosphorylation in human MP41 cells incubated for 4 hrs by Western blot analysis; type: cell-based; details: filed as activator, dose 3-20 µM
# [19] = molecular target: Transcriptional coactivator YAP1 (Homo sapiens) (UniProt P46937); experiment: Activation of YAP phosphorylation in human MP41 cells incubated for 24 hrs by Western blot analysis; type: cell-based; details: filed as activator, dose 3-20 µM
# [20] = molecular target: T2, GNAQ/GNA11 (Homo sapiens); experiment: Binding affinity to Galphaq/11 (unknown origin) assessed as increase in thermal stability at 10 uM incubated for 1 hr by CETSA; type: protein assay
# [21] = molecular target: T4, Type-1 angiotensin II receptor (Homo sapiens) (UniProt P30556); experiment: as §1; type: cell-based; details: dose 0.3-100 µM
# T4 sequence (whole entry): T1 sequence (P30556 whole entry)
# MP41 [22] = experiment: Antiproliferative activity against human MP41 cells transfected with SiGNA11 assessed as reduction in cell viability measured after 72 hrs by CCK-8 method; type: functional, cell-based; details: dose <= 10.0 µM
compound,measurement,setting,value
CC[C@H](C)[C@H](N)C(=O)N1CCn2cc(-c3ccc4c(c3)CCCC4)nc2[C@@H]1CC1CCCCC1.O=C(O)C(F)(F)F,solubility,[1],9190 µg/mL
same,remaining at 168 h,[2],98.5%
same,CLint scaled,[3],16.4 mL/min/kg
same,half-life,[4],1.77 h
CC[C@H](C)[C@H](N)C(=O)N1CCn2cc(-c3ccc4c(c3)CCCC4)nc2[C@@H]1CC1CCCCC1 [listing 1 of 2 here],IC50,[5],3.5 µM
same,IC50,[6],6.8 µM
same,Activity,HEK-293T,Non-Toxic
same,Activity,BEAS-2B,Non-Toxic
same,IC50,[7],8.9 µM
same,IC50,[8],23 µM
CC[C@H](C)[C@H](N)C(=O)N1CCn2cc(-c3ccc4c(c3)CCCC4)nc2[C@@H]1CC1CCCCC1 [listing 2 of 2 here],inhibition,[9],18.3%
same,Activity,A-375,inactive
same,Activity,SK-MEL-2,inactive
same,Activity,MP41 [10],Active
same,Activity,921,Active
same,inhibition,MP41 [11],Dose-Dependent Effect
same,inhibition,MP41 [12],Dose-Dependent Effect
same,inhibition,MP41 [13],Dose-Dependent Effect
same,inhibition,[14],Tde
same,Activity,[15],Tde
same,inhibition,[16],Dose-Dependent Effect
same,inhibition,[17],Dose-Dependent Effect
same,Activity,[18],Dose-Dependent Effect
same,Activity,[19],Dose-Dependent Effect
same,Activity,[20],Active
same,inhibition,[21],Dose-Dependent Effect
same,Activity,MP41 [22],Dose-Dependent Effect
